In the assay the target is T1, endothelial lipase (EL) (Homo sapiens, UniProt Q9Y5X9).
T1 construct: made in house; host or cells: recombinant cell lines (CHO, HEK293); concentrated conditioned medium used as enzyme solution
T1 sequence (Q9Y5X9 21-500): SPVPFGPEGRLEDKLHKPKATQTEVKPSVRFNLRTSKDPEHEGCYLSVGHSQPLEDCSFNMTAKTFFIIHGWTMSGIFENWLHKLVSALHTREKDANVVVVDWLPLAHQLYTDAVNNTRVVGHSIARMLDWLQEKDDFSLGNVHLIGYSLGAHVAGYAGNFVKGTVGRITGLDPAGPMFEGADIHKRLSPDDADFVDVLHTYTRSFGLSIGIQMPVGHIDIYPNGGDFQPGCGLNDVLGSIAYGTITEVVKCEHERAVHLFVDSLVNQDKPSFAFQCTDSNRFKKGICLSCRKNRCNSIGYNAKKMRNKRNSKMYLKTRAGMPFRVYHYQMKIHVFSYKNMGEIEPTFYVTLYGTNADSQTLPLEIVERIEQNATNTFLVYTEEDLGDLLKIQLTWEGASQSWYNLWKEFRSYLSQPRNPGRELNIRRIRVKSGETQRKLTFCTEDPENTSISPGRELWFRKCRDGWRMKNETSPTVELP
Kind of assay: Further EL inhibition assay. Format: biochemical. As to conditions: Bodipy-labelled phospholipid substrate, 37° C., 90 minutes, HPTLC fluorescence readout; EL from conditioned medium of recombinant cell lines (CHO, HEK293). The source says:
EL is released as secretory protein in high concentration into cell culture medium (conditioned medium) by recombinant cell lines (CHO, HEK293). This is employed as enzyme solution after concentration.
The enzymatic activity is reduced as a function of the inhibitor concentration used, and the inhibitor concentration at which a half-maximum enzymatic activity is observed is called IC50.
The phospholipase-specific substrate 1,2-bis(4,4-difluoro-5,7-dimethyl-4-bora-3a,4a-diaza-s-indacene-3-undecanoyl)-sn-glycero-3-phosphocholine, (manufacturer Molecular Probes) is used to characterize the enzymatic activity of endothelial lipase and the effect of inhibitors. Hydrolysis of the A1 ester linkage of this phospholipid by the enzyme liberates the fluorescent dye Bodipy which can be detected after separation by thin-layer chromatography on an HPTLC plate (silica gel 60, Merck) or directly in the reaction vessel by measuring the fluorescence. The substrate solution is prepared by dissolving 100 μg of 1,2-bis(4,4-difluoro-5,7-dimethyl-4-bora-3a,4a-diaza-s-indacene-3-undecanoyl)-sn-glycero-3-phospho-choline (manufacturer Molecular Probes) in 100 μl of DMSO and taking up in 2.4 mg of tripalmitin (Sigma) in 393 μl of chloroform which comprises 20 mg/ml DOP-choline (1,2-dioleoyl-sn-glycero-3-phosphocholine). 39.3 μl of this lipid mixture are transferred into a fresh reaction vessel, and the solvent is evaporated off. The lipid mixture is dissolved in 4 ml of 200 mM TRIS-HCl, 150 mM sodium chloride, pH=7.4, by sonication twice. The subsequent enzymic reaction takes place at 37° C. for 90 minutes. For this purpose, 20 μl of the substrate solution are incubated with 2 μl of inhibitor of appropriate concentration (dissolved in 10% DMSO, using 10% strength DMSO solution for control) and 2 μl of enzyme solution (conditioned medium). The 4 μl of the assay mixture are loaded onto an HPTLC plate (silica gel 60, Merck), and the liberated fluorescent dye is separated for detection with an eluent (diethyl ether:petroleum benzine:acetic acid [78:22:1]). After evaporation of the eluent, the plate is read in a fluorescence scanner. An increased liberation of the fluorescent dye in the uninhibited reaction is to be observed as a measure of the enzymic activity.
As to `Cc1ccccc1CNC(=O)n1c(=O)oc2cccnc21` [Example 1, 2-Oxo-oxazolo[4,5-b]pyridin-3-(2-methylbenzyl)carboxamide], the IC50 was 50 nM.

As to `Cc1ccccc1CNC(=O)n1c(=O)oc2cc(Br)cnc21` [Example 2, 6-Bromo-2-oxo-oxazolo[4,5-b]pyridine-3-(2-methylbenzyl)carboxamide], the IC50 was 10 nM. As for `CCCCCCNC(=O)n1c(=O)oc2cccnc21` [Example 3, 2-Oxo-oxazolo[4,5-b]pyridine-3-hexylcarboxamide], the half-inhibitory concentration (IC50) is 69 nM. The figure for `Cc1cccc(CNC(=O)n2c(=O)oc3cccnc32)c1` [Example 4, 2-Oxo-oxazolo[4,5-b]pyridine-3-(3-methylbenzyl)carboxamide] is 390 nM; for `Cc1ccc(CNC(=O)n2c(=O)oc3cccnc32)cc1C` [Example 5, 2-Oxo-oxazolo[4,5-b]pyridine-3-(3,4-dimethylbenzyl)carboxamide] it is 10 nM; for `CCCCCCCNC(=O)n1c(=O)oc2cccnc21` [Example 9, 2-Oxo-oxazolo[4,5-b]pyridine-3-heptylcarboxamide] it is 11 nM. Consider `CCCCNC(=O)n1c(=O)oc2cccnc21` [Example 11, 2-Oxo-oxazolo[4,5-b]pyridine-3-butylcarboxamide], for which the IC50 turned out to be 354 nM.

On to `O=C(NC1CCCc2ccccc21)n1c(=O)oc2cccnc21` (stereo not drawn) [Example 13, 2-Oxo-oxazolo[4,5-b]pyridin-3-(1,2,3,4-tetrahydronaphthalen-1-yl)carboxamide], for which the IC50 was found to be 0.5 nM. Consider `O=C(N[C@@H]1CCc2ccccc21)n1c(=O)oc2cccnc21` [Example 14], for which the IC50 stood at 180 nM. As for `O=C(N[C@H]1CCc2ccccc21)n1c(=O)oc2cccnc21` [Example 15], the figure is 230 nM. As for `CCCCCCCCCCCCNC(=O)n1c(=O)oc2cccnc21` [Example 16, 2-Oxo-oxazolo[4,5-b]pyridin-3-dodecylcarboxamide], the figure is 180 nM; as for `Cc1ccc2oc(=O)n(C(=O)NCc3ccccc3C)c2n1` [Example 17, 5-Methyl-2-oxo-oxazolo[4,5-b]pyridine-3-(2-methylbenzyl)carboxamide], 61 nM. With `O=C(NCC1CCCCC1)n1c(=O)oc2cccnc21` [Example 18, 2-Oxo-oxazolo[4,5-b]pyridine-3-cyclohexylmethylcarboxamide], the IC50 stood at 480 nM.

On to `CCCCCCCCNC(=O)n1c(=O)oc2cccnc21` [Example 19, 2-Oxo-oxazolo[4,5-b]pyridine-3-octylcarboxamide], for which the half-inhibitory concentration (IC50) worked out at 83 nM. `CCCCCCCCCNC(=O)n1c(=O)oc2cccnc21` [Example 20, 2-Oxo-oxazolo[4,5-b]pyridine-3-nonylcarboxamide]: the IC50 was 90 nM.

Values taken from patent publication US7846943B2, “Azolopyridin-2-one derivatives as lipase and phospholipase inhibitors” (Sanofi-Aventis, priority 2005, dated 2010).
